Measurements reported in article PMC6211260 (Journal of Enzyme Inhibition and Medicinal Chemistry, 2018).

How the values were obtained:
[1] = tested on: breast cancer cell lines; assay: NCI five-dose testing, subpanel mean; assay type: cell-based; details: subpanel IX: breast cancer
Experimental: (§1) Screening against the cancer cell lines was carried out at the National Cancer Institute (NCI, Bethesda, Maryland, USA) applying the standard protocol of the NCI[22].

[2] = tested on: ovarian cancer cell lines; assay: NCI five-dose testing, subpanel mean; assay type: cell-based; details: subpanel VI: ovarian cancer
Experimental: as §1

[3] = tested on: non-small cell lung cancer cell lines; assay: NCI five-dose testing, subpanel mean; assay type: cell-based; details: subpanel II: non-small cell lung cancer
Experimental: as §1

[4] = tested on: CNS cancer cell lines; assay: NCI five-dose testing, subpanel mean; assay type: cell-based; details: subpanel IV: CNS cancer
Experimental: as §1

[5] = tested on: prostate cancer cell lines; assay: NCI five-dose testing, subpanel mean; assay type: cell-based; details: subpanel VIII: prostate cancer
Experimental: as §1

[6] = tested on: Leukaemia cell lines; assay: NCI five-dose testing, subpanel mean; assay type: cell-based; details: subpanel I: Leukaemia
Experimental: as §1

[7] = tested on: renal cancer cell lines; assay: NCI five-dose testing, subpanel mean; assay type: cell-based; details: subpanel VII: renal cancer
Experimental: as §1

[8] = tested on: colon cancer cell lines; assay: NCI five-dose testing, subpanel mean; assay type: cell-based; details: subpanel III: colon cancer
Experimental: as §1

[9] = tested on: melanoma cell lines; assay: NCI five-dose testing, subpanel mean; assay type: cell-based; details: subpanel V: melanoma
Experimental: as §1

[10] = target: T1, JNK2 (Homo sapiens, UniProt P45984); assay: In vitro kinase screening (Kinase HotSpot); assay type: biochemical; details: single dose of 10 µM
T1 construct: purchased Reaction Biology Corp
T1 sequence (P45984 whole entry): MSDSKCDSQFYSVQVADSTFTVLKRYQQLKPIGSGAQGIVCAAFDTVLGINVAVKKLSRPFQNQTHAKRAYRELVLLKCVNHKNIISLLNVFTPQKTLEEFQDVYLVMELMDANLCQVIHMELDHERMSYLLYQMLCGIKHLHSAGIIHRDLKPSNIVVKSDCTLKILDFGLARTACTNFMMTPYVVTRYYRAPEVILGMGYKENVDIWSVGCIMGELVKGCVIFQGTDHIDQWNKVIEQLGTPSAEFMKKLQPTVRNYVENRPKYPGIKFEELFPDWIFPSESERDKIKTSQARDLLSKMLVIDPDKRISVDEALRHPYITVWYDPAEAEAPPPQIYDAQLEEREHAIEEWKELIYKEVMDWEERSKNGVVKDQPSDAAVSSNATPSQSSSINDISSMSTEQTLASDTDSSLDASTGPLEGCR
Excerpt: (§2) To investigate the biological target of compound, Reaction Biology Corp. Kinase HotSpotSM service was used adopting standard assay protocol.

[11] = target: T2, IKKb/IKBKB (Homo sapiens, UniProt O14920); assay: In vitro kinase screening (Kinase HotSpot); assay type: biochemical; details: single dose of 10 µM
T2 construct: purchased Reaction Biology Corp
T2 sequence (O14920 1-756): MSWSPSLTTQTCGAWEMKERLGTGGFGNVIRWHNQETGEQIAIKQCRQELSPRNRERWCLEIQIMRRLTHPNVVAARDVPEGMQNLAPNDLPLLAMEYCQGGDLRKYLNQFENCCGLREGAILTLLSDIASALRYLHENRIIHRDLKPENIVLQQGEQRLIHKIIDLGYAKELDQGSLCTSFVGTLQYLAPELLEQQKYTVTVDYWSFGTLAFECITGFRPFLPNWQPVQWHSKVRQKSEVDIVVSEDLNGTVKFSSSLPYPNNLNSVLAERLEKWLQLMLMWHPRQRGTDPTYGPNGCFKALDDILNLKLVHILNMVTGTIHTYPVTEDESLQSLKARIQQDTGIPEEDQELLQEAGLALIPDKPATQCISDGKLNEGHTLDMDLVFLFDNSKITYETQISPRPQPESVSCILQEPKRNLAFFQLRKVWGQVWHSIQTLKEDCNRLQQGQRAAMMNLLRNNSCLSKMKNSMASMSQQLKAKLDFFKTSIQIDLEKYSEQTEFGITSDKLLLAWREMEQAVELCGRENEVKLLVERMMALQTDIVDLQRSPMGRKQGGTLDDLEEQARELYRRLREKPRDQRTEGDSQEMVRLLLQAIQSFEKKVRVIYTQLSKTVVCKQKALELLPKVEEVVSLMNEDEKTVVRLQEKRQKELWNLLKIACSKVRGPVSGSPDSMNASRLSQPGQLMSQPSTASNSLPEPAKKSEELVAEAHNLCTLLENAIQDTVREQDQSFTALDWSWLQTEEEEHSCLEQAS
Excerpt: as §2

[12] = target: T3, JNK1 (Homo sapiens, UniProt P45983); assay: In vitro kinase screening (Kinase HotSpot); assay type: biochemical; details: single dose of 10 µM
T3 construct: purchased Reaction Biology Corp
T3 sequence (P45983 whole entry): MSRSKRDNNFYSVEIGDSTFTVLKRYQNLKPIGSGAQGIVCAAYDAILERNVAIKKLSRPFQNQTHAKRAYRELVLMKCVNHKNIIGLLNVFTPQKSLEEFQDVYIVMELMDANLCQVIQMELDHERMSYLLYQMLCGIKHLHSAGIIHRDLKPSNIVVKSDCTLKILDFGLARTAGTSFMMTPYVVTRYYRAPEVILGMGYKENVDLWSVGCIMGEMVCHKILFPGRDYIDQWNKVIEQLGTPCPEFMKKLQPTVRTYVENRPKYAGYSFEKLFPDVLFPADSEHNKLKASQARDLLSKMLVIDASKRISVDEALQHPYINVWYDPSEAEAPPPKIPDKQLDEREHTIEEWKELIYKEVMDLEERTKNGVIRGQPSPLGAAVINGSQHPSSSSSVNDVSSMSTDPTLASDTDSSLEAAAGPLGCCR
Excerpt: as §2

[13] = target: T4, ABL1 (T315I) (Homo sapiens, UniProt P00519, T315I); assay: In vitro kinase screening (Kinase HotSpot); assay type: biochemical; details: single dose of 10 µM
T4 construct: purchased Reaction Biology Corp
Excerpt: as §2

[14] = target: T5, GSK3b (Homo sapiens, UniProt P49841); assay: In vitro kinase screening (Kinase HotSpot); assay type: biochemical; details: single dose of 10 µM
T5 construct: purchased Reaction Biology Corp
T5 sequence (P49841 whole entry): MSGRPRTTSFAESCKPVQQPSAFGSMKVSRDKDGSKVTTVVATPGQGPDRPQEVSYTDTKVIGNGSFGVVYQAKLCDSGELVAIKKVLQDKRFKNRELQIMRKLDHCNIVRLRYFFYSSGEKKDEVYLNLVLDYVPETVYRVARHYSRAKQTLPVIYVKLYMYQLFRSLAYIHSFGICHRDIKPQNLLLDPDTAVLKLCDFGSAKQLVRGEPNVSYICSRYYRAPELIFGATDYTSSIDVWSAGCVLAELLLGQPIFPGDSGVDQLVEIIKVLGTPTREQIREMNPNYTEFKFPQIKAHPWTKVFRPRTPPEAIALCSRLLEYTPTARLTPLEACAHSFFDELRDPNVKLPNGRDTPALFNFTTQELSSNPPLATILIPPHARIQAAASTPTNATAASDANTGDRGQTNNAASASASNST
Excerpt: as §2

[15] = target: T6, P38a/MAPK14 (Homo sapiens, UniProt Q16539); assay: In vitro kinase screening (Kinase HotSpot); assay type: biochemical; details: single dose of 10 µM, P38a/MAPK14
T6 construct: purchased Reaction Biology Corp
T6 sequence (Q16539 whole entry): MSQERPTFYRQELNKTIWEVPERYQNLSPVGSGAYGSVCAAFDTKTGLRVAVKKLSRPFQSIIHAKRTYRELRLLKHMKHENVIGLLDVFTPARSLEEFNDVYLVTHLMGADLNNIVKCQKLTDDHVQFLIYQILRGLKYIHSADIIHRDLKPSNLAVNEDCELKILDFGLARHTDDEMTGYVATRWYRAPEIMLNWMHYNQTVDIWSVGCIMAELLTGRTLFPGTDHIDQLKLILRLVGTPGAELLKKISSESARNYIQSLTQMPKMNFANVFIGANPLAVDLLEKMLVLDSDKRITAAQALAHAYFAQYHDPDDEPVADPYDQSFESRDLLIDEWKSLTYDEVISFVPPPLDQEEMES
Excerpt: as §2

[16] = target: T7, JNK3 (Homo sapiens, UniProt P53779); assay: In vitro kinase screening (Kinase HotSpot); assay type: biochemical; details: single dose of 10 µM
T7 construct: purchased Reaction Biology Corp
T7 sequence (P53779 whole entry): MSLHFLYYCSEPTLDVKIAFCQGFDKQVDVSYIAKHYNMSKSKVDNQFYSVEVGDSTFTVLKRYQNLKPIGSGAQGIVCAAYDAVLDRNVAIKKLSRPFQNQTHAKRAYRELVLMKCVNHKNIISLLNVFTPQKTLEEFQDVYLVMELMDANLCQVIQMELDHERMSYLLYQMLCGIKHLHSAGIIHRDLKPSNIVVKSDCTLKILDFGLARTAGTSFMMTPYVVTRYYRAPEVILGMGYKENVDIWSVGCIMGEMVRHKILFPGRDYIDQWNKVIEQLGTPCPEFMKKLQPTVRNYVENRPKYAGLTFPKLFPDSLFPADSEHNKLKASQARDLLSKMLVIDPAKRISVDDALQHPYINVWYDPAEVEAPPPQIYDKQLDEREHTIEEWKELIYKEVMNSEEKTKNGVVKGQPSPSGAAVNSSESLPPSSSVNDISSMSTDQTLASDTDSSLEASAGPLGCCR
Excerpt: as §2

[17] = target: T8, CDK2/cyclin E (Homo sapiens, UniProt P24941); assay: In vitro kinase screening (Kinase HotSpot); assay type: biochemical; details: single dose of 10 µM
T8 construct: purchased Reaction Biology Corp
Excerpt: as §2

[18] = target: T9, BRAF (V600E) (Homo sapiens, UniProt P15056, V600E); assay: In vitro kinase screening (Kinase HotSpot); assay type: biochemical; details: single dose of 10 µM, BRAF (V599E) in Table 6, BRAF (V600E) in text
T9 construct: purchased Reaction Biology Corp
T9 sequence (P15056 whole entry V600E): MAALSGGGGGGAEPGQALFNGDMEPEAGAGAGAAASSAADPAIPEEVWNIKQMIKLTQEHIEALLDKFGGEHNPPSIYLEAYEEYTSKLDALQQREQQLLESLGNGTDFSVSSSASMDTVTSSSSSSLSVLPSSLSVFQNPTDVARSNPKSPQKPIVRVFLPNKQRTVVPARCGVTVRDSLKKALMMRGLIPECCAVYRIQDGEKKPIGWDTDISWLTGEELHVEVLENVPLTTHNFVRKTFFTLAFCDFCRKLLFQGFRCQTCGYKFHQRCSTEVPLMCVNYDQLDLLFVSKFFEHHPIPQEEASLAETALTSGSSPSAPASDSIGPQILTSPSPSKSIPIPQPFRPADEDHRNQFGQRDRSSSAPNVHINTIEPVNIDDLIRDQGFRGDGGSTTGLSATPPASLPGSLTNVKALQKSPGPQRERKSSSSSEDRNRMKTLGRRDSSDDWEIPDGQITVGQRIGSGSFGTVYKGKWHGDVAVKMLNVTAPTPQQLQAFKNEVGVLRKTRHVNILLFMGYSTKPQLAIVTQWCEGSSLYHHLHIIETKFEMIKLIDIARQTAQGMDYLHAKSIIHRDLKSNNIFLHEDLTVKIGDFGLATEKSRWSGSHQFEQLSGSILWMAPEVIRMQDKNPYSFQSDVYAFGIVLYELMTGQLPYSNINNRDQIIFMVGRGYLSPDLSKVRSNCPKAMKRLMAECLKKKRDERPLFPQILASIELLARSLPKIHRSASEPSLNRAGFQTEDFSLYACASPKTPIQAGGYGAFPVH
Excerpt: as §2

[19] = target: T10, BRAF (Homo sapiens, UniProt P15056); assay: In vitro kinase screening (Kinase HotSpot); assay type: biochemical; details: single dose of 10 µM
T10 construct: purchased Reaction Biology Corp
T10 sequence (P15056 whole entry): as the sequence (P15056 whole entry V600E) above, with E600V counted along it
Excerpt: as §2

[20] = target: T11, EGFR (Homo sapiens, UniProt P00533); assay: In vitro kinase screening (Kinase HotSpot); assay type: biochemical; details: single dose of 10 µM
T11 construct: purchased Reaction Biology Corp
T11 sequence (P00533 25-1210): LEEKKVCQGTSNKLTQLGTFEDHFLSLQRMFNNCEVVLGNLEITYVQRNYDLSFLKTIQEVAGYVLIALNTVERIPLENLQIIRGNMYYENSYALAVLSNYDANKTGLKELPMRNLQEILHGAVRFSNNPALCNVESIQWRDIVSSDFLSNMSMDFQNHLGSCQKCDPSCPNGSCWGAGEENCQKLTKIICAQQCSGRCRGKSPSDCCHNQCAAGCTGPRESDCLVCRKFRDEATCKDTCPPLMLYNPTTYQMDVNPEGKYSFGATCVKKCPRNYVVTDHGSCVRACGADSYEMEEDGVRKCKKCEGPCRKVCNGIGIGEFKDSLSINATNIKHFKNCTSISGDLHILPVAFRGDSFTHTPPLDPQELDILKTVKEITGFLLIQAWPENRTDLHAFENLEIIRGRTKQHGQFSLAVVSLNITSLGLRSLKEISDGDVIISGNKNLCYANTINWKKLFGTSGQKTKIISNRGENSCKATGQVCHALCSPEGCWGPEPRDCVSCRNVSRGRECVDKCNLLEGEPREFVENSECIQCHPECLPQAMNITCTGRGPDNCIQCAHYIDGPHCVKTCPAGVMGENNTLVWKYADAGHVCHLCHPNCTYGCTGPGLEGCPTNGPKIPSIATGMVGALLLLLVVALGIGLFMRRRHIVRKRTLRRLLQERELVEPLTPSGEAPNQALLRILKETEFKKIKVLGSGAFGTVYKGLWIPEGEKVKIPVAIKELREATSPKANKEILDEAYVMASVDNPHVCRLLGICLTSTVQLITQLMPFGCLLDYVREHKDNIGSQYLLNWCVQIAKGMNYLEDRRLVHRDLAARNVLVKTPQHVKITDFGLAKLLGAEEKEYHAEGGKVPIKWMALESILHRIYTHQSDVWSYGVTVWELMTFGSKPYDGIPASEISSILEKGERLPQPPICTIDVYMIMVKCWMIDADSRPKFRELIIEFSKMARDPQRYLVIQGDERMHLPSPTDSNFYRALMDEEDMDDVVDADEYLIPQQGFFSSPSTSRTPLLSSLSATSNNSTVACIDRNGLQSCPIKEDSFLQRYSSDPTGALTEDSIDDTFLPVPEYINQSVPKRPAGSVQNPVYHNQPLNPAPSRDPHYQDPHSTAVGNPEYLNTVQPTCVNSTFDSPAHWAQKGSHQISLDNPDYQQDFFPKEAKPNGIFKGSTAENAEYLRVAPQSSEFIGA
Excerpt: as §2

[21] = tested on: OVCAR-4 ovarian cancer cell line; assay: NCI five-dose testing; assay type: cell-based; details: OVCAR-4
Experimental: as §1

[22] = tested on: K-562 leukaemia cell line; assay: NCI five-dose testing; assay type: cell-based; details: K-562
Experimental: as §1

[23] = tested on: U251 CNS cancer cell line; assay: NCI five-dose testing; assay type: cell-based; details: U251
Experimental: as §1

[24] = tested on: HT-29 colon cancer cell line; assay: NCI five-dose testing; assay type: cell-based; details: HT-29
Experimental: as §1

[25] = tested on: A498 renal cancer cell line; assay: NCI five-dose testing; assay type: cell-based; details: A498
Experimental: as §1

[26] = tested on: HOP-92 non-small cell lung cancer cell line; assay: NCI five-dose testing; assay type: cell-based; details: HOP-92
Experimental: as §1

[27] = tested on: PC-3 prostate cancer cell line; assay: NCI five-dose testing; assay type: cell-based; details: PC-3
Experimental: as §1

[28] = tested on: MDA-MB-468 breast cancer cell line; assay: NCI five-dose testing; assay type: cell-based; details: MDA-MB-468
Experimental: as §1

[29] = tested on: SK-MEL-5 melanoma cell line; assay: NCI five-dose testing; assay type: cell-based; details: SK-MEL-5
Experimental: as §1

[30] = tested on: T-47D cell line; assay: NCI-60 single-dose screening; assay type: cell-based; details: 10 µM
Experimental: as §1
The final target compounds were submitted to the National Cancer Institute (NCI), Maryland, USA[23]. Thirty-one compounds were selected to be tested over 60 cell lines at single dose 10 µM.

[31] = read-out: TGI (total growth inhibition concentration)

For O=S(=O)(NCCNc1cc(-c2cn(-c3ccccc3)nc2-c2cccc(O)c2)ccn1)c1ccc(Cl)cc1 [Compound 1l, 4-Chloro-N-(2-((4-(3-(3-hydroxyphenyl)-1-phenyl-1H-pyrazol-4-yl)pyridin-2-yl)amino)ethyl) benzenesulfonamide], the IC50 [1] was 2480 nM, the IC50 [2] was 3.29 µM and the IC50 [3] was 3.16 µM. For the same compound, the IC50 [4] was 2850 nM, the IC50 [5] was 3.03 µM and the IC50 [6] was 2440 nM. It also gave an IC50 [7] of 3.18 µM, an IC50 [8] of 2460 nM and an IC50 [9] of 2380 nM. For the same compound, the Inhibition % [10] was 44.68 ± 0.01%, the Inhibition % [11] was 7.80 ± 0.10% and the Inhibition % [12] was 53.79 ± 0.04%. The Inhibition % [13] was 6.39 ± 0.35%, the Inhibition % [14] was 15.88 ± 0.21% and the Inhibition % [15] was 68.43 ± 0.59%. The Inhibition % [16] was 35.70 ± 0.04%, the Inhibition % [17] was 8.36 ± 0.95% and the Inhibition % [18] was 48.09 ± 0.45%. The Inhibition % [19] was 21.28 ± 0.21%, the Inhibition % [20] was 10.33 ± 3.40% and the IC50 [21] was 4.37 µM. For the same compound, the “LD50 (lethal dose 50)” value [21] was greater than 100 µM, the IC (TGI) [21, 31] was greater than 100 µM and the IC50 [22] was 1980 nM. For the same compound, the “LD50 (lethal dose 50)” value [22] was greater than 100 µM, the IC (TGI) [22, 31] was 5.4 µM and the “LD50 (lethal dose 50)” value [23] was 45.9 µM. The IC50 ([23]; read-out: IC50) was 3.21 µM, the IC (TGI) [23, 31] was 11.4 µM and the “LD50 (lethal dose 50)” value [24] was 61.8 µM. For the same compound, the IC50 ([24]; read-out: IC50) was 2240 nM, the IC (TGI) [24, 31] was 5.2 µM and the IC50 [25] was 2630 nM. For the same compound, the “LD50 (lethal dose 50)” value [25] was 57.1 µM, the IC (TGI) [25, 31] was 9.5 µM and the IC50 [26] was 2340 nM. The “LD50 (lethal dose 50)” value [26] was 70.5 µM, the IC (TGI) [26, 31] was 8.3 µM and the “LD50 (lethal dose 50)” value [27] was greater than 100 µM. The IC50 ([27]; read-out: IC50) was 2450 nM, the IC (TGI) [27, 31] was 12.0 µM and the IC50 [28] was 2780 nM. For the same compound, the “LD50 (lethal dose 50)” value [28] was greater than 100 µM, the IC (TGI) [28, 31] was 7.66 µM and the IC50 [29] was 2020 nM. For the same compound, the “LD50 (lethal dose 50)” value [29] was 7.9 µM and the IC (TGI) [29, 31] was 4.0 µM.
In the case of COc1cccc(-c2nn(-c3ccccc3)cc2-c2ccnc(NCCCNS(=O)(=O)c3ccc(Br)cc3)c2)c1 [Compound 2b, 4-Bromo-N-(3-((4-(3-(3-methoxyphenyl)-1-phenyl-1H-pyrazol-4-yl)pyridin-2-yl)amino)propyl) benzenesulfonamide], the per cent inhibition [30] is reported as 83.30%.
